In ChEMBL document CHEMBL1147669, “Synthesis of biphenyltrienes as probes for beta-amyloid plaques” (J Med Chem, 2006) one finds Ki data, which are given here for nine molecules.

pKi: −log10 of the molar value.

Test [1] concerns the target T1, Amyloid-beta precursor protein (Homo sapiens, UniProt P05067). Put plainly: Displacement of [125I]2-(4'-dimethylaminophenyl)-6-iodoimidazo[1,2-a]pyridine from beta amyloid peptide in brain tissue at 50 uL. In kind it is tissue-based.
Test [2] concerns the target T1, Amyloid-beta precursor protein. Description: Displacement of [125I](E,E)-1-iodo-2,5-bis-(3-hydroxycarbonyl-4-methoxy)styrylbenzene from beta amyloid peptide in brain tissue at 50 uL. It is filed as tissue-based.

T1 sequence (P05067 whole entry): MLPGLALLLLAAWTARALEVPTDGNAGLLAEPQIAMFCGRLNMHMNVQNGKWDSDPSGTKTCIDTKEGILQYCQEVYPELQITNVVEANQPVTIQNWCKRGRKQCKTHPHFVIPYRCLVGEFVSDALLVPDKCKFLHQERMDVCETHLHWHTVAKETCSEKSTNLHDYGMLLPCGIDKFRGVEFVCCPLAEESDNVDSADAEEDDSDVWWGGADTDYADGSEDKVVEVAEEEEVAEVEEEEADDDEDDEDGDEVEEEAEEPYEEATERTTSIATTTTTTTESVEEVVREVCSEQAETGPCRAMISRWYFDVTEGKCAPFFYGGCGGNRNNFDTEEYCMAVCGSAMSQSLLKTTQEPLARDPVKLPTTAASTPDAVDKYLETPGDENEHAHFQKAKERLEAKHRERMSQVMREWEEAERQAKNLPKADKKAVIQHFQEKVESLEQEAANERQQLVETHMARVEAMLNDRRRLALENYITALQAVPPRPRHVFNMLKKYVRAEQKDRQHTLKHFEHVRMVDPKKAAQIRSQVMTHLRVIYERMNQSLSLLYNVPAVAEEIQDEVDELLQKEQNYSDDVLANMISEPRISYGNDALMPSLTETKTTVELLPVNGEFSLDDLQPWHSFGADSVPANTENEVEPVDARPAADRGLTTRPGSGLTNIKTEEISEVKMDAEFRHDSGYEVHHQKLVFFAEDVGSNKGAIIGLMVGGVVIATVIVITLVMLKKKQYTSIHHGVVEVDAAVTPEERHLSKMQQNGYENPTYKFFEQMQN

`Nc1ccc(/C=C/C=C/C=C/c2ccc(N)cc2)cc1`: the pKi was 8.05 in test [1] and 6.43 in test [2].

In the case of `Oc1ccc(/C=C/C=C/C=C/c2ccc(O)cc2)cc1`, the pKi in test [1] was 8.05; in test [2], 6.82.

`Nc1ccc(/C=C/C=C/C=C/c2ccc(NCCF)cc2)cc1`: the pKi in test [1] is 7.92; in test [2] it was 6.66.

As to `CC(=C(C#N)C#N)c1ccc2cc(N(C)CCF)ccc2c1`, the pKi in test [1] was 6.82; in test [2], < 5.10.

As to `COc1ccc(/C=C/C=C/C=C/c2ccc(OC)cc2)cc1`, the pKi in test [1] was < 5.40; in test [2], < 5.10.

Consider `COc1ccc(/C=C/c2ccc(/C=C/c3ccc(OC)c(C(=O)O)c3)c(I)c2)cc1C(=O)O`, for which the pKi was < 6.00 in test [1] and 8.29 in test [2].

With `CN(C)c1ccc(/C=C/C=C/C=C/c2ccc(N(C)C)cc2)cc1`, the pKi is 6.08 in test [1] and < 5.15 in test [2].

On to `CNc1ccc(/C=C/C=C/C=C/c2ccc(NC)cc2)cc1`, for which the values for the negative logarithm of the Ki (pKi) in test [1] and in test [2] were 8.12 and 6.91, respectively.

Turning to `O=[N+]([O-])c1ccc(/C=C/C=C/C=C/c2ccc([N+](=O)[O-])cc2)cc1`, the pKi in test [1] was 6.30; in test [2], < 5.40.
